Data taken from patent publication US20130296346A1, “DIPHENYL-AMINE DERIVATIVES: USES, PROCESS OF SYNTHESIS AND PHARMACEUTICAL COMPOSITIONS” (Faes Farma, S.A., priority 2010, published 2013).
“Also recorded” adds a separate entry of the source. Marks after values point to notes of the source that are not given here.

How the values were obtained:
[1] = system: resting human PBLs; assay: Apoptosis of resting human PBLs; assay type: cell-based
Protocol: To isolate normal peripheral blood lymphocytes (PBLs), mononuclear cells were obtained from fresh human peripheral blood from healthy volunteers by centrifugation on Ficoll-Hypaque density gradients, washed with phosphate-buffered saline (PBS), and resuspended in RPMI-1640 medium containing 10% (v/v) heat-inactivated FBS, 2 mM L-glutamine, 100 U/ml penicillin, and 100 μg/ml streptomycin as described (Cabaner et al. Br. J. Pharmacol 127:813-825.1999). Monocytes were depleted by culture dish adherence after overnight incubation. Nonadherent cells (lymphocytes) were washed with PBS and collected. PBL preparations were typically 70-75% CD3^+, 24-29% CD 19^+, and less than 0.4% CD 14^+.

[2] = Cytotoxicity for human non-tumoral cells, XTT; assay type: cell-based; conditions: HUVEC cells (primary, from human cords)
Protocol: The cytotoxicity of the compounds for human non-tumoral cells was studied in fibroblasts, HUVEC cells and resting PBLs (Peripheral Blood lymphocytes).
HUVEC cells were obtained by treating human cords with collagenase type I, […] in Hank's medium incubating 20 minutes at 37° C. Cells were collected afterwards and cultivated in medium M199 with supplements of 20% FBS, 1% P/S and 25 mg/500 ml of medium ECGF, Cells were grown on a 0.2% gelatin matrix.
Distinct amounts of exponentially growing cells were seeded in 96-well flat-bottomed microtiter plates in a final volume of 100 μl were seeded in 96-well flat-bottomed microtiter plates, and incubated at 37° C. in a humidified atmosphere of 5% CO2/95% air for 24 h to allow the cells attach to the plates. Then, cells were incubated with different concentrations of the assayed compound at 37° C. under the 5% CO2/95% air atmosphere for 72 h. Cell proliferation was quantified using the XTT cell proliferation kit (Roche Molecular Biochemicals, Mannheim, Germany) following the manufacturer's instructions. Briefly, a freshly prepared mixture solution (50 μl) of XTT labelling reagent and PMS (N-methyldibenzopyrazine methyl sulfate) electron coupling reagent was added to each well. The resulting mixtures were further incubated for 4 h in a humidified atmosphere (37° C., 5% CO2), and the absorbance of the formazan product generated was measured with a microtiter plate reader at a test wavelength of 490 nm and a reference wavelength of 655 nm. The IC50 (50% inhibitory concentration) was then calculated as the drug concentration causing a 50% inhibition of cell proliferation. Data are shown as mean values of four independent experiments each performed in triplicate.

[3] = system: EHEB cells; assay: Chronic lymphocytic leukaemia xenograft animal model; assay type: in vivo, CB17-SCID mice
Protocol: The chronic lymphocytic leukaemia (CLL) EHEB cell line was cultured in RPMI-1640 medium containing 10% (v/v) heat-inactivated fetal bovine serum, 2 mM L-glutamine, 100 U/ml penicillin, and 100 μg/ml streptomycin at 37° C. in humidified 95% air and 5% CO2. Cells were periodically tested for Mycoplasma infection and found to be negative. CB17-severe combined immunodeficiency (SCID) mice (Charles River laboratories, Lyon, France), kept and handled according to institutional guidelines, complying with Spanish legislation under a 12/12 h light/dark cycle at a temperature of 22° C., received a standard diet and acidified water ad libitum. CB17-SCID mice were inoculated subcutaneously into their lower dorsum with 1.5×10^7 EHEB cells in 100 μl PBS and 100 μl Matrigel basement membrane matrix (Becton Dickinson). When tumors were palpable, mice were randomly assigned into cohorts of 10 mice each, receiving i.v. administration (3 times/week) of the compound at the tail. The volume used for each i. v. administration was […] rendering a final drug concentration of 2.5 mg/kg (body weight). Mice i. v. administered with an equal volume of vehicle were run in parallel. The shortest and longest diameter of the tumor were measured with calipers, and tumor volume (10^−3 cm^3) was calculated using the following standard formula: (the shortest diameter)^2×(the longest diameter)×0.5. Animals were sacrificed, according to institutional guidelines, when the diameter of their tumors reached 3 cm or when significant toxicity was observed. Animal body weight and any sign of morbidity were monitored. Drug treatment lasted for 41 days. Then, tumor xenografts were isolated, measured and weighed, and a necropsy analysis involving tumors and distinct organs was carried out. All values were expressed as means±SD. Statistical differences between groups were assessed using the Mann-Whitney test or the Student's t-test. A p value of less than 0.05 was considered statistically significant. Results are depicted in FIG. 1.

[4] = 2.5 mg/kg i.v. 3 times/week, 41 days
[5] = ex vivo after 41 days, 2.5 mg/kg i.v. 3 times/week
[6] = vs control, 2.5 mg/kg i.v. 3 times/week, 41 days

Compound: Fc1ccc(CNCCCC=C(c2ccccc2)c2ccccc2)cc1 [Compound 3, (5,5-diphenyl-pent-4-enyl)-(4-fluoro-benzyl)-amine hydrocloride]
- % Apoptosis PBLs ([1]; 10^−4 M): 7.5%
- % Apoptosis PBLs ([1]; 10^−5 M): 1.3%
- effect on PBLs ([1]; even at 10^−4 M): hardly affect PBLs
- IC50 at 72 h [2]: 16 µM
- CLL tumor growth compared with the control group [3, 4]: inhibited CLL tumor growth; also recorded: stadistically significant
- necropsy analysis of distinct organs [3, 4]: No significant events or changes in the distinct organs
- vascularization of isolated tumors ([3]; compared to drug-free tumor-bearing control mice): very little vascularization
- Tumor Volume [3, 5]: 0.487 cm^3
- Tumor Weight [3, 5]: 0.932 g
- Inhibition (%) of Tumor Volume [3, 6]: 74.88** %
- Inhibition (%) of Tumor Weight [3, 6]: 50.69** %
